The text below walks through data of patent US9827312B2, “Method for carrying therapeutic substances into cells” (MAGFORCE AG, priority 2005, dated 2017).

One assay deals with tumor cells (in vitro). Kind of assay: Destruction of tumor cells in vitro by cefamandole alone. The following applies: cefamandole without nanoparticles. In kind it is cell-based. The text has this:
Cefamandole (CAS No 30034-03-8) is used to combat bacterial infections. […] This substance's potential to combat cancer cells, however, is to be considered to be rather low. […] It is, however, possible to drastically increase the efficacy of cefamandole in the treatment of tumor cells by the simultaneous application of nanoparticles.

The test system of assay [1] is BT20 (breast carcinoma) cells. Kind of assay: Efficacy of cefamandole/nanoparticle mixture in vitro, BT20 (Example 2). It is filed as cell-based, human. The following applies: 72 hrs incubation, cefamandole 0.016 mg/ml in medium, 136 μl MFL AS M01. As for the experimental part: (§1) The experiments in vitro were carried out with the cell lines BT20 (breast carcinoma) and WiDr (colon carcinoma). The tumor cells were taken from tumor tissue of a patient and cultivated as described in DE 199 12 798 C1. 2×10^6 cells, respectively, were prepared in a 75 cm^3 cell culture bottle with 25 ml of cell culture medium (RPMI+10% FBS+1.2 ml of pyruvate for WiDr cells, or respectively BME+10% FBS+pyruvate+5 ml of non-essential amino acids+5 ml glutamine for BT20 cells) for testing the efficacy of the cefamandole/nanoparticle mixture. 136 μl of magnetic fluid MFL AS M01 (iron oxide nanoparticle coated with polycondensed N-(2-aminoethyl)-3-(trimethoxysilyl)propylamine, manufacturer: MagForce Nanotechnologies GmbH, Berlin, Germany) (cFe=2 mol/l) and 390 μl of cefamandole solution (stock solution 1 mg/ml in 0.9% NaCl) were added to said cell suspension.
(§2) After 72 hrs, 30.5% of the BT20 cells and 24% of the WiDr cells had died. Neither cefamandole in the selected concentration, nor the nanoparticle alone, are capable of causing cell death (0% of dead cells). Only the combination of cefamandole and nanoparticles leads to said significant damage of the tumor cells which is due to the transfer of cefamandole into the cells.

The test system of assay [2] is WiDr (colon carcinoma) cells. Kind of assay: Efficacy of cefamandole/nanoparticle mixture in vitro, WiDr (Example 2). In kind it is cell-based, human. The following applies: 72 hrs incubation, cefamandole 0.016 mg/ml in medium, 136 μl MFL AS M01. As for the experimental part: as §1, §2
A further assay concerns rectal carcinoma cells. Briefly: Increase in the activity of cytostatics with nanoparticles (Table 1), rectal carcinoma. It is filed as cell-based. The following applies: procedure of example 2. The method, then:
as §1
(§3) Corresponding to the experiment procedure according to example 2, the following […] were tested in vitro with the active ingredients listed in table 1: a) glioblastoma human cell line RUSIRS 1; b) breast carcinoma cell lines BT20; c) colon carcinoma cell line WiDR; d) bronchial carcinoma cells NSCLC, e) rectal carcinoma cells and f) prostate carcinoma cell line DU 145.
(§4) In all cases, an increased activity of the cytostatic could be observed. The increase in activity is indicated in parentheses after the respective cytostatic, wherein (+) means an increase of about 5% to 80% and (++) means an increase of 80% to 500%.

For a further assay, the system named is neuroglioma cell line H4. Kind of assay: Increase in the activity of cytostatics with nanoparticles (Table 1), H4. It is filed as cell-based. The following applies: procedure of example 2. As for the experimental part:
as §1, §3, §4

For assay [3], the system named is colon carcinoma cell line WiDr. Briefly: Increase in the activity of cytostatics with nanoparticles (Table 1), WiDr. The following applies: procedure of example 2. It is filed as cell-based, human. As for the experimental part: as §1, §3, §4
The subject of assay [4] is glioblastoma human cell line RUSIRS1. Kind of assay: Increase in the activity of cytostatics with nanoparticles (Table 1), RUSIRS1. In kind it is cell-based. The following applies: procedure of example 2. As for the experimental part:
as §1, §3, §4

Assay [5] has as its system bronchial carcinoma cells NSCLC. Kind of assay: Increase in the activity of cytostatics with nanoparticles (Table 1), NSCLC. It is filed as cell-based. The following applies: procedure of example 2. As for the experimental part:
as §1, §3, §4

Assay [6] has as its system prostate carcinoma cell line DU 145. Briefly: Increase in the activity of cytostatics with nanoparticles (Table 1), DU 145. In kind it is cell-based. The following applies: procedure of example 2. As for the experimental part: as §1, §3, §4
The subject of assay [7] is breast carcinoma cell lines BT20. Briefly: Increase in the activity of cytostatics with nanoparticles (Table 1), BT20. In kind it is cell-based, human. The following applies: procedure of example 2. The method, then:
as §1, §3, §4

Each structure is given as a SMILES string.

`Cn1nnnc1SCC1=C(C(=O)O)N2C(=O)[C@@H](NC(=O)[C@H](O)c3ccccc3)[C@H]2SC1` [cefamandole, Cefamandole]: the “concentration in the cell culture medium needed for destruction of tumor cells” value in the assay on tumor cells (in vitro) is no less than 0.5 mg/mL. Also, the dead cells in assay [1] and in assay [2] was 0% throughout.
Regarding `CO[C@H]1C[C@@H]2CC[C@@H](C)[C@@](O)(O2)C(=O)C(=O)N2CCCC[C@H]2C(=O)O[C@H]([C@H](C)C[C@@H]2CC[C@@H](O)[C@H](OC)C2)CC(=O)[C@H](C)/C=C(\C)[C@@H](O)[C@@H](OC)C(=O)[C@H](C)C[C@H](C)/C=C/C=C/C=C/1C` [rapamycin], the “increase in the activity of cytostatics” value in the assay with rectal carcinoma cells is recorded as “(++) ((++) means an increase of 80% to 500%)”; in the assay on neuroglioma cell line H4, “(+) ((+) means an increase of about 5% to 80%)”; in [3] it was “(+) ((+) means an increase of about 5% to 80%)”; in assay [4] it was “(+) ((+) means an increase of about 5% to 80%)”; in assay [5], “(+) ((+) means an increase of about 5% to 80%)”; in assay [6], “(+) ((+) means an increase of about 5% to 80%)”. Also, the “increase in the activity of cytostatics” value in assay [7] was “(++) ((++) means an increase of 80% to 500%)”.
In the case of `CCC(C)(C)C(=O)O[C@H]1C[C@@H](C)C=C2C=C[C@H](C)[C@H](CC[C@@H]3C[C@@H](O)CC(=O)O3)[C@H]21` [simvastatin], the “increase in the activity of cytostatics” value in the assay on rectal carcinoma cells is “(+) ((+) means an increase of about 5% to 80%)”; in the assay on neuroglioma cell line H4, “(+) ((+) means an increase of about 5% to 80%)”; in assay [3], “(+) ((+) means an increase of about 5% to 80%)”; in assay [4], “(+) ((+) means an increase of about 5% to 80%)”; in assay [5], “(++) ((++) means an increase of 80% to 500%)”; in assay [6], “(+) ((+) means an increase of about 5% to 80%)”. The “increase in the activity of cytostatics” value in assay [7] was “(+) ((+) means an increase of about 5% to 80%)”.
In the case of `CN(C)[C@@H]1C(O)=C(C(N)=O)C(=O)[C@@]2(O)C(O)=C3C(=O)c4c(O)cccc4[C@@](C)(O)[C@H]3C[C@@H]12` [tetracycline], the “increase in the activity of cytostatics” value with rectal carcinoma cells is recorded as “(++) ((++) means an increase of 80% to 500%)”; in the assay with neuroglioma cell line H4, “(+) ((+) means an increase of about 5% to 80%)”; in [3], “(+) ((+) means an increase of about 5% to 80%)”; in [4], “(+) ((+) means an increase of about 5% to 80%)”; in [5], “(+) ((+) means an increase of about 5% to 80%)”; in [6], “(++) ((++) means an increase of 80% to 500%)”. Moreover, the “increase in the activity of cytostatics” value in [7] is recorded as “(+) ((+) means an increase of about 5% to 80%)”.
For the compound `NC[C@H]1O[C@H](O[C@H]2[C@H](O)[C@@H](O[C@H]3O[C@H](CO)[C@@H](O)[C@H](N)[C@H]3O)[C@H](N)C[C@@H]2N)[C@H](N)C[C@@H]1O` [tobramycin], the “increase in the activity of cytostatics” value (with rectal carcinoma cells; with neuroglioma cell line H4; in [3]; in [4]; in assay [5]; in [6]) was “(+) ((+) means an increase of about 5% to 80%)” throughout. Besides, the “increase in the activity of cytostatics” value in assay [7] is listed as “(+) ((+) means an increase of about 5% to 80%)”.
Turning to `CC[C@]1(O)C[C@H]2CN(CCc3c([nH]c4ccccc34)[C@@](C(=O)OC)(c3cc4c(cc3OC)N(C=O)[C@H]3[C@@](O)(C(=O)OC)[C@H](OC(C)=O)[C@]5(CC)C=CCN6CC[C@]43[C@@H]65)C2)C1` [vincristine], the “increase in the activity of cytostatics” value is reported as “(++) ((++) means an increase of 80% to 500%)” in the assay on rectal carcinoma cells; “(+) ((+) means an increase of about 5% to 80%)” in the assay with neuroglioma cell line H4; “(+) ((+) means an increase of about 5% to 80%)” in assay [3]; “(+) ((+) means an increase of about 5% to 80%)” in assay [4]; “(++) ((++) means an increase of 80% to 500%)” in assay [5]; “(+) ((+) means an increase of about 5% to 80%)” in assay [6]. For the same compound, the “increase in the activity of cytostatics” value in assay [7] is “(++) ((++) means an increase of 80% to 500%)”.
